Values quoted from earlier work, collected in US7375230B2, “Fermentation and purification of migrastatin and analog” (Kosan Biosciences, Inc., priority 2000, dated 2008).

Legend:
mouse melanoma B16 cells = conditions: compared with clarithromycin and erythromycin
[1] = system: human esophageal cancer EC17 cells; conditions: compared with clarithromycin and erythromycin

SMILES: CO[C@H]1/C=C/CC/C=C/C(=O)O[C@H]([C@H](C)C(=O)CCCC2CC(=O)NC(=O)C2)/C(C)=C\[C@@H](C)[C@@H]1O [Migrastatin, migrastatin]
- effectiveness against the migration of cells (mouse melanoma B16 cells): more effective than clarithromycin and erythromycin
- effectiveness against the migration of cells [1]: more effective than clarithromycin and erythromycin
